Reference: patent US11786525B1, “High-efficiency anti-tumor nano-drug delivery system containing hydralazine and preparation method thereof” (SHANGHAI INSTITUTE FOR ADVANCED STUDY ZHE JIANG UNIVERSITY, priority 2022, dated 2023)

Key:
[1] = test system: mouse breast cancer cells (4T1); experiment: Cytotoxicity to 4T1 cells; assay type: cell-based; details: incubated 48 h, different concentrations
Description: (§1) At the cellular level, the cytotoxicity of HDZ to cells is first tested. HDZ at different concentrations is incubated with mouse breast cancer cells (4T1), human breast cancer cells (MBA-MD-231), and vascular epithelial cells (HUVEC) for 48 h. […] Then, the cytotoxicity of D-NPs, C-NPs, H-NPs, and DOX with 4T1, MBA-MD-231, and HUVEC cells is subsequently tested. The experimental results are shown in FIG. 3B, FIG. 3C and FIG. 3D. […] This is because there is a polypeptide cRGD on the surface of C-NPs targeting the integrin αvβ3 overexpressed on the surface of 4T1 and MBA-MD-231 tumor cells, which can make more C-NPs enter the tumor cells and improve their cytotoxicity.

[2] = test system: vascular epithelial cells (HUVEC); experiment: Cytotoxicity to HUVEC cells; assay type: cell-based; details: incubated 48 h, different concentrations
Description: as §1

[3] = test system: human breast cancer cells (MBA-MD-231); experiment: Cytotoxicity to MBA-MD-231 cells; assay type: cell-based; details: incubated 48 h, different concentrations
Description: as §1

4T1 tumor-bearing mice = experiment: Biodistribution in 4T1 tumor-bearing mice (tissue grinding, fluorescence analysis); assay type: in vivo; details: at 48 h versus 24 h
Description: In addition, in order to detect the difference in the distribution of free doxorubicin, D-NPs and H-NPs in tumors and other organs, 4T1 tumor-bearing mice are sacrificed at different time intervals after intravenous injection of different drugs, the organs of the mice are taken out for tissue grinding and extraction, and finally fluorescence analysis is performed. It can be seen that compared with free doxorubicin, D-NPs and H-NPs have higher enrichment rates in various organs and tumors of mice, which are about 1.52 and about 1.81 times (24 h) higher than free doxorubicin, respectively. […] From the above cytotoxicity and blood circulation experiments, it can be inferred that this is because compared with free doxorubicin, D-NPs and H-NPs have longer blood circulation capacity in the blood and are not easy to be cleared by cells.

Structure (SMILES)	cytotoxicity [1]	cytotoxicity [2]	cytotoxicity [3]	change of enrichment in the tumor site with extension of time (4T1 tumor-bearing mice)
NNc1nncc2ccccc12 [HDZ, hydralazine]	not very toxic	not very toxic	not very toxic	
COc1cccc2c1C(=O)c1c(O)c3c(c(O)c1C2=O)C[C@@](O)(C(=O)CO)C[C@@H]3O[C@H]1C[C@H](N)[C@H](O)[C@H](C)O1 [free doxorubicin, doxorubicin]				decreases
